The values that follow come from ChEMBL document CHEMBL1139487, “Discovery of corticotropin releasing factor 2 receptor selective sauvagine analogues for treatment of skeletal muscle atrophy” (J Med Chem, 2005).

For assay [1], the target named is T1, Corticotropin-releasing factor receptor 1 (Mus musculus, UniProt P35347).
T1 sequence (P35347 whole entry): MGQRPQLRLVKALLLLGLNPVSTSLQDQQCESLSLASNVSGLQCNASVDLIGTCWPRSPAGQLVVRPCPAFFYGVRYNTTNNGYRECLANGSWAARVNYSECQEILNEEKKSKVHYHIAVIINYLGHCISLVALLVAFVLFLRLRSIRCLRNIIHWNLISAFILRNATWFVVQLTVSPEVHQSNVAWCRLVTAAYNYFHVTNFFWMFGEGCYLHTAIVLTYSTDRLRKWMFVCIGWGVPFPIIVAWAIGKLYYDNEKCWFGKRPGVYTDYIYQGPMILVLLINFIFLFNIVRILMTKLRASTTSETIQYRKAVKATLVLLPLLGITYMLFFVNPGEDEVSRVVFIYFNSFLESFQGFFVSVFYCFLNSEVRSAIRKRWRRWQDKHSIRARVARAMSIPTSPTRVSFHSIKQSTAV
Briefly: In vitro effective concentration for mouse corticotropin releasing factor 1 receptor.

In assay [2] the target is Corticotropin-releasing factor receptor 2 (Mus musculus, UniProt Q60748). Kind of assay: In vitro effective concentration for mouse corticotropin releasing factor 2 receptor.
Sequence of Corticotropin-releasing factor receptor 2 (Q60748 whole entry): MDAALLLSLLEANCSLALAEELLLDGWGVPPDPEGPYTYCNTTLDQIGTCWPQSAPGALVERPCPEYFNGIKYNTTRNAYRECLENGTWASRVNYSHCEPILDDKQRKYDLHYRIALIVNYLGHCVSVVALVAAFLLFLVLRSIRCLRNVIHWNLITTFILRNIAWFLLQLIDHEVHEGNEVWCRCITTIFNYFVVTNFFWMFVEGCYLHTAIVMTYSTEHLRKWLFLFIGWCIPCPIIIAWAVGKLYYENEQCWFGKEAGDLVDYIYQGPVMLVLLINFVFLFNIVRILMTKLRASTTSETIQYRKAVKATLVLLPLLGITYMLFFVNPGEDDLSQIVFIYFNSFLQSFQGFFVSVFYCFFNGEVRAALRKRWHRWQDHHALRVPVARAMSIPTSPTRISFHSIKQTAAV

Molecules are shown by their SMILES. Square brackets hold non-standard residues; d marks the D form. Peptide text beside a SMILES is read from it. pGlu = O=C1CC[C@@H](C(=O)O)N1

As to `CC[C@H](C)[C@H](NC(=O)[C@@H](NC(=O)[C@H](CC(=O)O)NC(=O)[C@H](CC(C)C)NC(=O)[C@H](CC(C)C)NC(=O)[C@H](CC(C)C)NC(=O)[C@H](CCCNC(=N)N)NC(=O)[C@H](CC(N)=O)NC(=O)[C@H](CC(N)=O)NC(=O)[C@H](C)NC(=O)[C@H](C)NC(=O)[C@H](CCC(N)=O)NC(=O)[C@H](CCC(N)=O)NC(=O)[C@H](CCCCN)NC(=O)[C@H](CCC(=O)O)NC(=O)[C@H](CCCCN)NC(=O)[C@H](CCC(=O)O)NC(=O)[C@H](CCC(N)=O)NC(=O)[C@H](CCCCN)NC(=O)[C@H](CCC(=O)O)NC(=O)[C@@H](NC(=O)[C@H](CCC(=O)O)NC(=O)[C@@H](NC(=O)[C@H](CCSC)NC(=O)[C@H](CCCCN)NC(=O)[C@H](CCCNC(=N)N)NC(=O)[C@H](CC(C)C)NC(=O)[C@H](CC(C)C)NC(=O)[C@H](CCC(N)=O)NC(=O)[C@H](CCC(N)=O)NC(=O)[C@@H]1CCCN1C(=O)[C@H](CC(C)C)NC(=O)[C@H](CC(=O)O)NC(=O)[C@@H](NC(=O)[C@H](CO)NC(=O)[C@@H](NC(=O)[C@@H]1CCCN1C(=O)[C@@H]1CCCN1C(=O)CNC(=O)[C@@H]1CCC(=O)N1)[C@@H](C)CC)[C@@H](C)CC)[C@@H](C)CC)[C@@H](C)CC)[C@@H](C)O)C(=O)O`, the EC50 (in general, the concentration needed to bring the measured effect to its halfway point) in assay [1] is greater than 1 µM; in assay [2] it was 0.0299 µM.
The like results for `CC[C@H](C)[C@H](NC(=O)[C@@H](NC(=O)[C@H](CC(=O)O)NC(=O)[C@H](CC(C)C)NC(=O)[C@H](CC(C)C)NC(=O)[C@H](CC(C)C)NC(=O)[C@H](CCCNC(=N)N)NC(=O)[C@H](CC(N)=O)NC(=O)[C@H](CC(N)=O)NC(=O)[C@H](C)NC(=O)[C@H](C)NC(=O)[C@H](CCC(N)=O)NC(=O)[C@H](CCC(N)=O)NC(=O)[C@H](CCCCN)NC(=O)[C@H](CCC(=O)O)NC(=O)[C@H](CCCCN)NC(=O)[C@H](CCC(=O)O)NC(=O)[C@H](CCC(N)=O)NC(=O)[C@H](CCCCN)NC(=O)[C@H](CCC(=O)O)NC(=O)[C@@H](NC(=O)[C@H](CCC(=O)O)NC(=O)[C@@H](NC(=O)[C@H](CCSC)NC(=O)[C@H](CCCCN)NC(=O)[C@H](CCCNC(=N)N)NC(=O)[C@H](CC(C)C)NC(=O)[C@H](CC(C)C)NC(=O)[C@H](CC(C)C)NC(=O)[C@@H](NC(=O)[C@@H]1CCCN1C(=O)[C@H](CC(C)C)NC(=O)[C@H](CC(=O)O)NC(=O)[C@@H](NC(=O)[C@H](CO)NC(=O)[C@@H](NC(=O)[C@@H]1CCCN1C(=O)[C@@H]1CCCN1C(=O)CNC(=O)[C@@H]1CCC(=O)N1)[C@@H](C)CC)[C@@H](C)CC)[C@@H](C)O)[C@@H](C)CC)[C@@H](C)CC)[C@@H](C)O)C(=O)O` were, in that order, greater than 1 µM and 0.0206 µM.
For the molecule `CC[C@H](C)[C@H](NC(=O)[C@@H](NC(=O)[C@H](CC(=O)O)NC(=O)[C@H](CC(C)C)NC(=O)[C@H](CC(C)C)NC(=O)[C@H](CC(C)C)NC(=O)[C@H](CCCNC(=N)N)NC(=O)[C@H](CC(N)=O)NC(=O)[C@H](CC(N)=O)NC(=O)[C@H](C)NC(=O)[C@H](C)NC(=O)[C@H](CCC(N)=O)NC(=O)[C@H](CCC(N)=O)NC(=O)[C@H](CCCCN)NC(=O)[C@H](CCC(=O)O)NC(=O)[C@H](CCCCN)NC(=O)[C@H](CCC(=O)O)NC(=O)[C@H](CCC(N)=O)NC(=O)[C@H](CCCCN)NC(=O)[C@H](CCC(=O)O)NC(=O)[C@@H](NC(=O)[C@H](CCC(=O)O)NC(=O)[C@@H](NC(=O)[C@H](CCSC)NC(=O)[C@H](CCCCN)NC(=O)[C@H](CCCNC(=N)N)NC(=O)[C@H](CC(C)C)NC(=O)[C@H](CC(C)C)NC(=O)[C@H](CCC(=O)O)NC(=O)[C@H](CC(C)C)NC(=O)[C@@H]1CCCN1C(=O)[C@H](CC(C)C)NC(=O)[C@H](CC(=O)O)NC(=O)[C@@H](NC(=O)[C@H](CO)NC(=O)[C@@H](NC(=O)[C@@H]1CCCN1C(=O)[C@@H]1CCCN1C(=O)CNC(=O)[C@@H]1CCC(=O)N1)[C@@H](C)CC)[C@@H](C)CC)[C@@H](C)CC)[C@@H](C)CC)[C@@H](C)O)C(=O)O`, the EC50 was 0.096 µM in assay [1] and 0.0109 µM in assay [2].
For `CC[C@H](C)[C@H](NC(=O)[C@@H](NC(=O)[C@H](CC(=O)O)NC(=O)[C@H](CC(C)C)NC(=O)[C@H](CC(C)C)NC(=O)[C@H](CC(C)C)NC(=O)[C@H](CCCNC(=N)N)NC(=O)[C@H](CC(N)=O)NC(=O)[C@H](CC(N)=O)NC(=O)[C@H](C)NC(=O)[C@H](C)NC(=O)[C@H](CCC(N)=O)NC(=O)[C@H](CCC(N)=O)NC(=O)[C@H](CCCCN)NC(=O)[C@H](CCC(=O)O)NC(=O)[C@H](CCCCN)NC(=O)[C@H](CCC(=O)O)NC(=O)[C@H](CCC(N)=O)NC(=O)[C@H](CCCCN)NC(=O)[C@H](CCC(=O)O)NC(=O)[C@@H](NC(=O)[C@H](CCC(=O)O)NC(=O)[C@@H](NC(=O)[C@H](CCSC)NC(=O)[C@H](CCCCN)NC(=O)[C@H](CCCNC(=N)N)NC(=O)[C@H](CC(C)C)NC(=O)[C@H](CC(C)C)NC(=O)[C@H](CCC(N)=O)NC(=O)[C@H](Cc1ccc(O)cc1)NC(=O)[C@@H]1CCCN1C(=O)[C@H](CC(C)C)NC(=O)[C@H](CC(=O)O)NC(=O)[C@@H](NC(=O)[C@H](CO)NC(=O)[C@@H](NC(=O)[C@@H]1CCCN1C(=O)[C@@H]1CCCN1C(=O)CNC(=O)[C@@H]1CCC(=O)N1)[C@@H](C)CC)[C@@H](C)CC)[C@@H](C)CC)[C@@H](C)CC)[C@@H](C)O)C(=O)O`, in that order: 0.404 µM and 0.0086 µM.
The like results for `CC[C@H](C)[C@H](NC(=O)[C@@H](NC(=O)[C@H](CC(=O)O)NC(=O)[C@H](CC(C)C)NC(=O)[C@H](CC(C)C)NC(=O)[C@H](CC(C)C)NC(=O)[C@H](CCCNC(=N)N)NC(=O)[C@H](CC(N)=O)NC(=O)[C@H](CC(N)=O)NC(=O)[C@H](C)NC(=O)[C@H](C)NC(=O)[C@H](CCC(N)=O)NC(=O)[C@H](CCC(N)=O)NC(=O)[C@H](CCCCN)NC(=O)[C@H](CCC(=O)O)NC(=O)[C@H](CCCCN)NC(=O)[C@H](CCC(=O)O)NC(=O)[C@H](CCC(N)=O)NC(=O)[C@H](CCCCN)NC(=O)[C@H](CCC(=O)O)NC(=O)[C@@H](NC(=O)[C@H](CCC(=O)O)NC(=O)[C@@H](NC(=O)[C@H](CCSC)NC(=O)[C@H](CCCCN)NC(=O)[C@H](CCCNC(=N)N)NC(=O)[C@H](CC(C)C)NC(=O)[C@H](CC(C)C)NC(=O)[C@H](Cc1ccc(O)cc1)NC(=O)[C@H](Cc1ccc(O)cc1)NC(=O)[C@@H]1CCCN1C(=O)[C@H](CC(C)C)NC(=O)[C@H](CC(=O)O)NC(=O)[C@@H](NC(=O)[C@H](CO)NC(=O)[C@@H](NC(=O)[C@@H]1CCCN1C(=O)[C@@H]1CCCN1C(=O)CNC(=O)[C@@H]1CCC(=O)N1)[C@@H](C)CC)[C@@H](C)CC)[C@@H](C)CC)[C@@H](C)CC)[C@@H](C)O)C(=O)O` were, in that order, 0.102 µM and 0.007 µM.
In the case of `CC[C@H](C)[C@H](NC(=O)[C@@H](NC(=O)[C@H](CC(=O)O)NC(=O)[C@H](CC(C)C)NC(=O)[C@H](CC(C)C)NC(=O)[C@H](CC(C)C)NC(=O)[C@H](CCCNC(=N)N)NC(=O)[C@H](CC(N)=O)NC(=O)[C@H](CC(N)=O)NC(=O)[C@H](C)NC(=O)[C@H](C)NC(=O)[C@H](CCC(N)=O)NC(=O)[C@H](CCC(N)=O)NC(=O)[C@H](CCCCN)NC(=O)[C@H](CCC(=O)O)NC(=O)[C@H](CCCCN)NC(=O)[C@H](CCC(=O)O)NC(=O)[C@H](CCC(N)=O)NC(=O)[C@H](CCCCN)NC(=O)[C@H](CCC(=O)O)NC(=O)[C@@H](NC(=O)[C@H](CCC(=O)O)NC(=O)[C@@H](NC(=O)[C@H](CCSC)NC(=O)[C@H](CCCCN)NC(=O)[C@H](CCCNC(=N)N)NC(=O)[C@H](CC(C)C)NC(=O)[C@H](CC(C)C)NC(=O)[C@@H](NC(=O)[C@H](CC(C)C)NC(=O)[C@@H]1CCCN1C(=O)[C@H](CC(C)C)NC(=O)[C@H](CC(=O)O)NC(=O)[C@@H](NC(=O)[C@H](CO)NC(=O)[C@@H](NC(=O)[C@@H]1CCCN1C(=O)[C@@H]1CCCN1C(=O)CNC(=O)[C@@H]1CCC(=O)N1)[C@@H](C)CC)[C@@H](C)CC)C(C)C)[C@@H](C)CC)[C@@H](C)CC)[C@@H](C)O)C(=O)O`, the EC50 in assay [1] was 0.265 µM; in assay [2], 0.0055 µM.
The like results for `CC[C@H](C)[C@H](NC(=O)[C@@H](NC(=O)[C@H](CC(=O)O)NC(=O)[C@H](CC(C)C)NC(=O)[C@H](CC(C)C)NC(=O)[C@H](CC(C)C)NC(=O)[C@H](CCCNC(=N)N)NC(=O)[C@H](CC(N)=O)NC(=O)[C@H](CC(N)=O)NC(=O)[C@H](C)NC(=O)[C@H](C)NC(=O)[C@H](CCC(N)=O)NC(=O)[C@H](CCC(N)=O)NC(=O)[C@H](CCCCN)NC(=O)[C@H](CCC(=O)O)NC(=O)[C@H](CCCCN)NC(=O)[C@H](CCC(=O)O)NC(=O)[C@H](CCC(N)=O)NC(=O)[C@H](CCCCN)NC(=O)[C@H](CCC(=O)O)NC(=O)[C@@H](NC(=O)[C@H](CCC(=O)O)NC(=O)[C@@H](NC(=O)[C@H](CCSC)NC(=O)[C@H](CCCCN)NC(=O)[C@H](CCCNC(=N)N)NC(=O)[C@H](CC(C)C)NC(=O)[C@H](CC(C)C)NC(=O)[C@H](Cc1ccc(O)cc1)NC(=O)[C@H](CC(C)C)NC(=O)[C@@H]1CCCN1C(=O)[C@H](CC(C)C)NC(=O)[C@H](CC(=O)O)NC(=O)[C@@H](NC(=O)[C@H](CO)NC(=O)[C@@H](NC(=O)[C@@H]1CCCN1C(=O)[C@@H]1CCCN1C(=O)CNC(=O)[C@@H]1CCC(=O)N1)[C@@H](C)CC)[C@@H](C)CC)[C@@H](C)CC)[C@@H](C)CC)[C@@H](C)O)C(=O)O` ([pGlu]GPPISIDLPLYLLRKMIEIEKQEKEKQQAANNRLLLDTI-OH) were, in that order, 0.0679 µM and 0.0043 µM.
